Measurements as given in patent publication US7696246B2 (Ligand Pharmaceuticals Incorporated, priority 1999, dated 2010).
Where two headings read alike, the source gives them in different places.

Key:
human AR [1] = biological target: T1, human AR (Homo sapiens, UniProt P10275); assay: Co-transfection assay, AR agonist activity (CV-1 cells, MTV-LUC reporter); assay type: cell-based; conditions: CV-1 cells; for EC50: agonist potency EC50; for AR Agonist CV-1 Cells Efficacy (%): percent maximal response relative to reference agonist DHT
T1 sequence (P10275 1-920): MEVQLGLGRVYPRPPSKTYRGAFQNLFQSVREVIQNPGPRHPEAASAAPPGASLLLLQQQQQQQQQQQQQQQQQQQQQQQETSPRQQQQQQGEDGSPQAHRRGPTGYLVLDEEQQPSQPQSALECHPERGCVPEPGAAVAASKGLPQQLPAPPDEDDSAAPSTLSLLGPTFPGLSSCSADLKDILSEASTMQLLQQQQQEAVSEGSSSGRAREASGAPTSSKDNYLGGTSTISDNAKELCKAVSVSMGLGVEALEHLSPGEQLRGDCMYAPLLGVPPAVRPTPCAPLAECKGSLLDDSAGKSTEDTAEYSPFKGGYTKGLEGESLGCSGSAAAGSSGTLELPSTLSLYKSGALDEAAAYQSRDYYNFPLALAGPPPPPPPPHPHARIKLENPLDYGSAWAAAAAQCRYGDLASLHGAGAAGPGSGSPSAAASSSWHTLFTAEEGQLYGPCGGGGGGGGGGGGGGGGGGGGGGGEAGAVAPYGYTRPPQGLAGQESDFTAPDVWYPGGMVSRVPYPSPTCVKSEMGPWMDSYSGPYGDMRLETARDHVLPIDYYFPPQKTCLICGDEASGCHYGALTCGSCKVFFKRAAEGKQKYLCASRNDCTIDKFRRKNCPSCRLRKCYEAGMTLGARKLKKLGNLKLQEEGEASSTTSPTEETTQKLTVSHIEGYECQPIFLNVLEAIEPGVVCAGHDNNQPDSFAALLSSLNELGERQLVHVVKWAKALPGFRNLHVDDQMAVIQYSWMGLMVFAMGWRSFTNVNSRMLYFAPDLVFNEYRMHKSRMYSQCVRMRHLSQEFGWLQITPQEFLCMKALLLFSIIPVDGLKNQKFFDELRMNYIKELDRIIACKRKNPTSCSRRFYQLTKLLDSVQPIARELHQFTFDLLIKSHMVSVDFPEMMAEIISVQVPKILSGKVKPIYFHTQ

human AR [2] = biological target: T1, human AR; assay: AR whole cell competitive binding assay (COS-1 cells, 3H-DHT); conditions: 1 nM 3H-DHT, Cheng-Prusoff
Method: AR Binding: For the whole cell binding assay, COS-1 cells in 96-well microtiter plates containing DMEM-10% FBS were transfected as described above with the following plasmid DNA: pRShAR (2 ng/well), pRS-β-Gal (50 ng/well) and pGEM (48 ngcwell). Six hours after transfection, media was removed, the cells were washed with PBS and fresh media was added. The next day, the media was changed to DMEM-serum free to remove any endogenous ligand that might be complexed with the receptor in the cells.
Three replicates were used for each sample. […] The remaining media was removed, the cells were washed three times with PBS to remove unbound ligand, and cells were lysed with a Triton X-100-based buffer.
For the saturation analyses, the difference between the total binding and the nonspecific binding, normalized by the β-Gal rate, was defined as specific binding. […] The Ki values were determined by application of the Cheng-Prusoff equation to the IC50 values, where:
After correcting for non-specific binding, IC50 values were determined. […] The IC50 value was determined graphically from a log-logit plot of the data. The Ki values were determined by application of the Cheng-Prusoff equivuation to the IC50 values, the labeled ligand concentration and the Kd of the labeled ligand.

human AR [3] = biological target: T1, human AR; assay: Co-transfection assay, AR antagonist activity (CV-1 cells, in presence of DHT); assay type: cell-based; conditions: for AR Antagonist CV-1 Cells Efficacy (%): percent maximal inhibition, DHT at its EC50; for IC50: read-out: AR Antagonist CV-1 Cells Potency

SMILES	EC50 (human AR [1]) [µM]	AR Agonist CV-1 Cells Efficacy (%) (human AR [1])	Ki (human AR [2]) [µM]	AR Antagonist CV-1 Cells Efficacy (%) (human AR [3]; CV-1 cells)	IC50 (human AR [3]) [µM]	IC50 (human AR [3]; CV-1 cells, antagonist potency IC50, DHT at its EC50) [µM]
CCCN(CC(F)(F)F)c1ccc2[nH]c(=O)cc(C)c2c1 [Compound 374, 6-(N-Propyl-N-2,2,2-trifluoroethyl)amino-4-methyl-2(1H)-quinolinone]	0.0022	77	0.0062	na (na = not active (i.e. efficacy of <20 and potency of >10,000))	> 10	
O=c1cc(C(F)(F)F)c2cc(N3CCCCCC3)ccc2[nH]1 [Compound 330, 6-(1-Azepano)-4-trifluoromethyl-2(1H)-quinolinone]	0.0039	81	0.055	na (na = not active (i.e. efficacy of <20 and potency of >10,000))	> 10	
O=c1cc(C(F)(F)F)c2cc(-c3cccc(F)c3)ccc2[nH]1 [Compound 741, 4-Trifluoromethyl-6-(3-fluorophenyl)-2(1H)-quinolinone]	> 10		0.322	92%	0.027	
O=c1cc(C(F)(F)F)c2cc(N(CC(F)(F)Cl)CC(F)(F)Cl)ccc2[nH]1 [Compound 225, 6-(bis-2-Chloro-2,2-difluoroethyl)amino-4-trifluoromethyl-2(1H)-quinolinone]	0.0004	90	0.0009	na (na = not active (i.e. efficacy of <20 and potency of >10,000))	> 10	
O=c1cc(C(F)(F)F)c2cc(N3CCCc4ccccc43)ccc2[nH]1 [Compound 348, 6-(1-Tetrahydroquinolino)-4-trifluoromethyl-2(1H)-quinolinone]	> 10		0.062	81%	0.024	
O=c1cc(C(F)(F)F)c2cc(C3CCCCC3)ccc2[nH]1 [Compound 616, 6-Cyclohexyl-4-trifluoromethyl-2(1H)-quinolinone]	> 10		0.015	92%	0.017	
CC(C)c1ccc2c(c1)CN(C)C(=O)N2 [Compound 721, 3,4-Dihydro-6-isopropyl-3-methyl-2(1H)-quinazolinone]	> 10		> 1	85%	0.032	
CC(C)(C)Nc1ccc2[nH]c(=O)cc(C(F)(F)F)c2c1 [Compound 307, 6-tert-Butylamino-4-trifluoromethyl-2(1H)-quinolinone]	> 10		0.061	43%	0.0032	
COC[C@H]1CCCN1c1ccc2[nH]c(=O)cc(C(F)(F)F)c2c1 [Compound 423, (R)-6-(2-Methoxymethyl-1-pyrrolidino)-4-trifluoromethyl-2(1H)-quinolinone]	0.086	57	0.022	na (na = not active (i.e. efficacy of <20 and potency of >10,000))	> 10	
Nc1cc2[nH]c(=O)cc(C(F)(F)F)c2cc1C1CCCCC1 [Compound 582, 7-Amino-6-cyclohexyl-4-trifluoromethyl-2(1H)-quinolinone]	> 10		0.043	92%	0.026	
C=CC1CCCCN1c1ccc2[nH]c(=O)cc(C(F)(F)F)c2c1 (racemic) [Compound 444, (±)-6-(2-Vinyl-1-piperidino)-4-trifluoromethyl-2(1H)-quinolinone]	0.073	83	0.026	na (na = not active (i.e. efficacy of <20 and potency of >10,000))	> 10	
CCCN(c1ccc2[nH]c(=O)cc(C(F)(F)F)c2c1)C(C)CC (racemic) [Compound 255, (±)-6-(N-Propyl-N-1-methylpropyl)amino-4-trifluoromethyl-2(1H)-quinolinone]	0.025	135	0.067	na (na = not active (i.e. efficacy of <20 and potency of >10,000))	> 10	
O=c1cc(C(F)(F)F)c2cc(N(Cc3ccccc3)Cc3ccccc3)ccc2[nH]1 [Compound 272, 6-(bis-N,N-Benzyl)amino-4-trifluoromethyl-2(1H)-quinolinone]	> 10		> 1	67%	0.007	
CC1OC(=O)Nc2ccc(C3=CCCCC3)cc21 (racemic) [Compound 698, (±)-6-(1-Cyclohexenyl)-1,4-dihydro-4-methyl-1,3-benzo[d]oxazin-2-one]	> 10		0.032	84%	0.017	
CC1CN(c2ccc3[nH]c(=O)cc(C(F)(F)F)c3c2)C(C(F)(F)F)O1 (racemic) [Compound 351, (±)-6-(2-Trifluoromethyl-5-cis-methyl-1-oxazolidino)-4-trifluoromethyl-2(1H)-quinolinone]	0.023	79	0.031	na (na = not active (i.e. efficacy of <20 and potency of >10,000))		> 10
CC1CCCCN1c1ccc2[nH]c(=O)cc(C(F)(F)F)c2c1 (racemic) [Compound 314, (±)-6-(2-Methyl-1-piperidino)-4-trifluoromethyl-2(1H)-quinolinone]	0.0053	83	0.0046	na (na = not active (i.e. efficacy of <20 and potency of >10,000))	> 10	
CC1(C)CC(=O)Nc2ccc(N(CC(F)(F)F)CC(F)(F)F)cc21 [Compound 501, 3,4-Dihydro-4,4-dimethyl-6-(bis-N,N-2,2,2-trifluoroethyl)amino-2(1H)-quino-linone]	0.0058	110	0.016	na (na = not active (i.e. efficacy of <20 and potency of >10,000))	> 10	
O=c1cc(C(F)(F)F)c2cc(N(CC(Cl)Cl)CC(Cl)Cl)ccc2[nH]1 [Compound 232, 6-(bis-N-2,2-Dichloroethyl)amino-4-trifluoromethyl-2(1H)-quinolinone]	0.0034	55	0.0076	na (na = not active (i.e. efficacy of <20 and potency of >10,000))	> 10	
CCC[C@@H]1CC[C@H](CCC)N1c1ccc2[nH]c(=O)cc(C(F)(F)F)c2c1 [Compound 366, 6-(2,5-cis-Dipropyl-1-pyrrolidino)-4-trifluoromethyl-2(1H)-quinolinone]	> 10		> 1	85%	0.031	
C=CCN(CC=C)c1ccc2[nH]c(=O)cc(C(F)(F)F)c2c1 [Compound 280, 6-Diallylamino-4-trifluoromethyl-2(1H)-quinolinone]	0.0022	78	0.0024	na (na = not active (i.e. efficacy of <20 and potency of >10,000))	> 10	
